Laboratory results as given in patent US20100298141A1, “SUBSTITUTED PYRIDINE N-OXIDE HERBICIDES” (E. I. DU PONT DE NEMOURS AND COMPANY, priority 2007, published 2010).

Columns and labels:
[1] = test system: corn; experiment: Test A pre-/postemergence greenhouse test; type: in vivo, Zea mays; conditions: for Corn plant response rating: 0 to 100 scale
Method in brief: (§1)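 Pre: directed soil spray on seeded loam/sand. Post: foliar spray, plants 2–10 cm, 1–2 leaf stage, applied concurrently. Vehicle: non-phytotoxic solvent + surfactant. Greenhouse ~10 d; visual injury rating vs untreated controls.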

[2] = test system: duck salad; experiment: Test C flooded paddy test; type: in vivo, Heteranthera limosa; conditions: Flood
Method in brief: (§2)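 Visual injury ratings against untreated controls, taken 13 to 15 days after compound was added to paddy water standing 3 cm above the soil.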

[3] = test system: velvetleaf; experiment: Test A pre-/postemergence greenhouse test; type: in vivo, Abutilon theophrasti; conditions: for Velvetleaf plant response rating: 0 to 100 scale
Method in brief: as §1

[4] = test system: barnyardgrass; experiment: Test A pre-/postemergence greenhouse test; type: in vivo, Echinochloa crus-galli; conditions: for Barnyardgrass plant response rating: 0 to 100 scale
Method in brief: as §1

[5] = test system: crabgrass; experiment: Test A pre-/postemergence greenhouse test; type: in vivo, Digitaria sanguinalis; conditions: for Crabgrass, Large plant response rating: 0 to 100 scale
Method in brief: as §1

[6] = test system: umbrella sedge; experiment: Test C flooded paddy test; type: in vivo, Cyperus difformis; conditions: Flood
Method in brief: as §2

[7] = test system: morningglory; experiment: Test A pre-/postemergence greenhouse test; type: in vivo, Ipomoea spp.; conditions: for Morningglory plant response rating: 0 to 100 scale
Method in brief: as §1

[8] = test system: rice; experiment: Test C flooded paddy test; type: in vivo, Oryza sativa; conditions: Flood
Method in brief: as §2

[9] = test system: wheat; experiment: Test A pre-/postemergence greenhouse test; type: in vivo, Triticum aestivum; conditions: for Wheat plant response rating: 0 to 100 scale
Method in brief: as §1

[10] = test system: giant foxtail; experiment: Test A pre-/postemergence greenhouse test; type: in vivo, Setaria faberi; conditions: for Foxtail, Giant plant response rating: 0 to 100 scale
Method in brief: as §1

[11] = test system: barnyardgrass; experiment: Test C flooded paddy test; type: in vivo, Echinochloa crus-galli; conditions: Flood
Method in brief: as §2

[12] = test system: redroot pigweed; experiment: Test A pre-/postemergence greenhouse test; type: in vivo, Amaranthus retroflexus; conditions: for Pigweed plant response rating: 0 to 100 scale
Method in brief: as §1

[13] = Postemergence, 125 g ai/ha, 0 to 100 scale where 0 is no effect and 100 is complete control
[14] = Postemergence, 500 g ai/ha, 0 is no effect, 100 is complete control
[15] = Preemergence, 125 g ai/ha, 0 no effect, 100 complete control
[16] = Preemergence, 500 g ai/ha, 0 no effect, 100 complete control
[17] = 31 g ai/ha, scale 0 to 100 (0 no effect, 100 complete control)
[18] = 62 g ai/ha, scale 0 to 100 (0 no effect, 100 complete control)
[19] = 125 g ai/ha, scale 0 to 100, 0 no effect, 100 complete control, 13 to 15 days
[20] = 250 g ai/ha, scale 0 to 100, 0 no effect, 100 complete control, 13 to 15 days

Cc1ccc[n+]([O-])c1[S+]([O-])Cc1c(C(F)(F)F)nn(C)c1OC(F)F (stereo not drawn) [Compound 112]
Plant response rating, Corn [1, 13]: 50
Corn plant response rating [1, 14]: 60
Corn plant response rating [1, 15]: 40
Corn plant response rating [1, 16]: 70
Plant response rating, Ducksalad [2, 17]: 0
Plant response rating, Ducksalad [2, 18]: 0
Plant response rating, Ducksalad [2, 19]: 20
Plant response rating, Ducksalad [2, 20]: 50
Plant response rating, Velvetleaf [3, 13]: 50
Velvetleaf plant response rating [3, 14]: 70
Velvetleaf plant response rating [3, 15]: 10
Velvetleaf plant response rating [3, 16]: 60
Plant response rating, Barnyardgrass [4, 13]: 70
Barnyardgrass plant response rating [4, 14]: 80
Barnyardgrass plant response rating [4, 15]: 60
Barnyardgrass plant response rating [4, 16]: 90
Plant response rating, Crabgrass, Large [5, 13]: 70
Crabgrass, Large plant response rating [5, 14]: 80
Crabgrass, Large plant response rating [5, 15]: 70
Crabgrass, Large plant response rating [5, 16]: 90
Plant response rating, Sedge, Umbrella [6, 17]: 0
Plant response rating, Sedge, Umbrella [6, 18]: 30
Plant response rating, Sedge, Umbrella [6, 19]: 75
Plant response rating, Sedge, Umbrella [6, 20]: 95
Plant response rating, Morningglory [7, 13]: 70
Morningglory plant response rating [7, 14]: 90
Morningglory plant response rating [7, 15]: 60
Morningglory plant response rating [7, 16]: 90
Plant response rating, Rice [8, 17]: 0
Plant response rating, Rice [8, 18]: 0
Plant response rating, Rice [8, 19]: 0
Plant response rating, Rice [8, 20]: 15
Plant response rating, Wheat [9, 13]: 50
Wheat plant response rating [9, 14]: 60
Wheat plant response rating [9, 15]: 40
Wheat plant response rating [9, 16]: 70
Plant response rating, Foxtail, Giant [10, 13]: 70
Foxtail, Giant plant response rating [10, 14]: 80
Foxtail, Giant plant response rating [10, 15]: 80
Foxtail, Giant plant response rating [10, 16]: 100
Plant response rating, Barnyardgrass [11, 17]: 0
Plant response rating, Barnyardgrass [11, 18]: 0
Plant response rating, Barnyardgrass [11, 19]: 15
Plant response rating, Barnyardgrass [11, 20]: 45
Plant response rating, Pigweed [12, 13]: 40
Pigweed plant response rating [12, 14]: 60
Pigweed plant response rating [12, 15]: 10
Pigweed plant response rating [12, 16]: 90
